Measured values published in US20120070374A1, “Compounds for Non-Invasive Measurement of Aggregates of Amyloid Peptides” (priority 2009, published 2012).

Biological target: fibrils of Aβ40 and Aβ42
Experiment: Inhibition of N-[^3H-methyl]6-OH-BTA-1 ([^3H]PIB) binding to β-amyloid fibrils, determination of Ki
Design: species or system Human
Details: radioligand used for Ki calculation; [L] 4 nM
Procedure: Human Aβ40 and Aβ42 peptides (Bachem) were incubated at 0.5 mg/ml in a solution of 10 mM Na2HPO4, 1 mM EDTA (pH 7.4) at 37° C. for 48 h. The formation of fibrils was confirmed by microscopy and binding of [^3H]6-OH-BTA-1 ([^3H]PIB). Fibrils were either used immediately or aliquoted and subsequently stored at −80° C. until use. Solutions of the test substances (>95% purity according to analytical HPLC) or 6-OH-BTA-1 (>95% purity according to analytical HPLC; ABX Biochemicals, Radeberg, Germany) and N—[^3H-methyl]6-OH-BTA-1 were prepared as 1-10 mM dimethyl sulfoxide (DMSO) stocks before dilution into assay buffer. The maximum final concentration of DMSO in the assays was 1%. All assays were performed in 10 mM Na2HPO4. The incubation was performed at 25° C. for 180 min. The bound and free fractions were separated by vacuum filtration through GF/B glass filters (Whatman, Maidstone, UK) using a Perkin Elmer harvester (PerkinElmer, 96 Micro B Filtermat) followed by 6×0.2 ml washes with ice cold phosphate buffer. Filters containing the bound ligand were counted with a liquid scintillation counter (Wallac Trilux, 1450 Microbeta). […] The inhibition of [^3H]PIB binding was measured for five different concentrations of the test compound in question, performed in duplicates.

Kd: 4.2 nM
SMILES: CNc1ccc(-c2nc3ccc(O)cc3s2)cc1 [[^3H]PIB, N-[^3H-methyl]6-OH-BTA-1]
